Laboratory results published in the NIST ThermoML archive (doi:10.1021/je5002126).
Numbers after ± are expanded uncertainties.

How the values were obtained:
[1] = xn = mol fraction of the nth substance listed; settings: for electrical conductivity / viscosity / mass density: 101 kPa, Liquid; for electrical conductivity: Alternating current cell with electrodes; for viscosity: Concentric cylinders viscometry; for mass density: Vibrating tube method; for surface tension liquid-gas: Ring tensiometer
[2] = refractive index (Na D-line) (dimensionless); xn = mol fraction of the nth substance listed; settings: 101 kPa, Liquid, Standard Abbe refractometry

CCCC[N+](CCCC)(CCCC)CCCC.[Cl-] [tetrabutylammonium chloride] + OCCO
Settings | electrical conductivity, [1] [S/m] | mass density, [1] [kg/m3] | refractive index, [2] | surface tension liquid-gas, [1] [mN/m] | viscosity, [1] [mPa·s]
293.15 K, x1 = 0.2 | 0.000202 ± 8e-06 | 1145 ± 1.4 | 1.4615 ± 0.0021 | – | 85.33 ± 8.6
293.15 K, x1 = 0.25 | 0.000154 ± 6.2e-06 | 1130 ± 1.4 | 1.4653 ± 0.0021 | – | 105 ± 11
293.15 K, x1 = 0.333 | 9.91e-05 ± 4e-06 | 1105 ± 1.4 | 1.4703 ± 0.0021 | – | 212 ± 22
303.15 K, x1 = 0.2 | 0.000272 ± 1.1e-05 | 1138 ± 1.4 | 1.4585 ± 0.0021 | 40.7 ± 1.2 | 56.9 ± 5.7
303.15 K, x1 = 0.25 | 0.000214 ± 9e-06 | 1123 ± 1.4 | 1.4619 ± 0.0021 | 40.1 ± 1.2 | 71.9 ± 7.3
303.15 K, x1 = 0.333 | 0.000139 ± 6e-06 | 1099 ± 1.4 | 1.4672 ± 0.0021 | 39.3 ± 1.2 | 127 ± 13
313.15 K, x1 = 0.2 | 0.000354 ± 1.4e-05 | 1132 ± 1.4 | 1.4554 ± 0.0021 | 39.9 ± 1.2 | 37.16 ± 3.8
313.15 K, x1 = 0.25 | 0.000293 ± 1.2e-05 | 1117 ± 1.4 | 1.4587 ± 0.0021 | 39.4 ± 1.2 | 45.17 ± 4.6
313.15 K, x1 = 0.333 | 0.00022 ± 1e-05 | 1092 ± 1.4 | 1.4641 ± 0.0021 | 38.3 ± 1.2 | 76.43 ± 7.7
323.15 K, x1 = 0.2 | 0.00045 ± 2e-05 | 1125 ± 1.4 | 1.4523 ± 0.0021 | 39.1 ± 1.2 | 26.27 ± 2.6
323.15 K, x1 = 0.25 | 0.000387 ± 1.5e-05 | 1110 ± 1.4 | 1.4556 ± 0.0021 | 38.3 ± 1.2 | 29.37 ± 3
323.15 K, x1 = 0.333 | 0.00026 ± 1e-05 | 1086 ± 1.4 | 1.4609 ± 0.0021 | 37.2 ± 1.2 | 49.3 ± 5
333.15 K, x1 = 0.2 | 0.000521 ± 2.1e-05 | 1119 ± 1.4 | 1.4491 ± 0.0021 | 38.3 ± 1.2 | 19.7 ± 2
333.15 K, x1 = 0.25 | 0.000457 ± 1.8e-05 | 1104 ± 1.4 | 1.4525 ± 0.0021 | 37.5 ± 1.2 | 20.23 ± 2
333.15 K, x1 = 0.333 | 0.000375 ± 1.5e-05 | 1079 ± 1.4 | 1.4578 ± 0.0021 | 36.6 ± 1.2 | 33.6 ± 3.4
343.15 K, x1 = 0.2 | 0.000615 ± 2.5e-05 | 1112 ± 1.4 | 1.445 ± 0.002 | 37.5 ± 1.2 | 14.85 ± 1.5
343.15 K, x1 = 0.25 | 0.000567 ± 2.3e-05 | 1097 ± 1.4 | 1.4495 ± 0.0021 | 36.8 ± 1.2 | 14.53 ± 1.5
343.15 K, x1 = 0.333 | 0.000385 ± 1.5e-05 | 1073 ± 1.4 | 1.4545 ± 0.0021 | 35.7 ± 1.2 | 23.53 ± 2.4
353.15 K, x1 = 0.2 | 0.000722 ± 2.9e-05 | 1106 ± 1.4 | 1.4427 ± 0.0021 | 36.8 ± 1.2 | 10.5 ± 1.1
353.15 K, x1 = 0.25 | 0.00062 ± 3e-05 | 1091 ± 1.4 | 1.4469 ± 0.0021 | 36.1 ± 1.2 | 10.7 ± 1.1
353.15 K, x1 = 0.333 | 0.000468 ± 1.9e-05 | 1067 ± 1.3 | 1.4509 ± 0.0021 | 34.9 ± 1.1 | 16 ± 1.6

CCCC[N+](CCCC)(CCCC)CCCC.[Cl-] [tetrabutylammonium chloride] + OCC(O)CO
Settings | electrical conductivity, [1] [S/m] | mass density, [1] [kg/m3] | refractive index, [2] | surface tension liquid-gas, [1] [mN/m] | viscosity, [1] [mPa·s]
293.15 K, x1 = 0.167 | 0.0162 ± 0.00065 | 1040 ± 10 | 1.4781 ± 0.0021 | – | 1100 ± 120
293.15 K, x1 = 0.2 | 0.0192 ± 0.00077 | 1029 ± 1 | 1.4776 ± 0.0021 | – | 950 ± 100
293.15 K, x1 = 0.25 | 0.017 ± 0.00068 | 1014 ± 1 | 1.4802 ± 0.0021 | – | 1170 ± 130
303.15 K, x1 = 0.167 | 0.0307 ± 0.0012 | 1034 ± 1 | 1.4754 ± 0.0021 | 47.1 ± 1.2 | 541.3 ± 57
303.15 K, x1 = 0.2 | 0.0358 ± 0.0014 | 1023 ± 1 | 1.4747 ± 0.0021 | 46.7 ± 1.2 | 476.1 ± 50
303.15 K, x1 = 0.25 | 0.0309 ± 0.0012 | 1008 ± 1 | 1.4774 ± 0.0021 | 46 ± 1 | 580 ± 62
313.15 K, x1 = 0.167 | 0.0492 ± 0.002 | 1027 ± 1 | 1.4726 ± 0.0021 | 46.2 ± 1.2 | 261 ± 27
313.15 K, x1 = 0.2 | 0.0525 ± 0.0021 | 1017 ± 1 | 1.4718 ± 0.0021 | 45.9 ± 1.2 | 225 ± 23
313.15 K, x1 = 0.25 | 0.0485 ± 0.0019 | 1001 ± 1 | 1.4745 ± 0.0021 | 44.9 ± 1.2 | 293.3 ± 30
323.15 K, x1 = 0.167 | 0.0788 ± 0.0032 | 1020 ± 10 | 1.4697 ± 0.0021 | 45.5 ± 1.2 | 137.3 ± 14
323.15 K, x1 = 0.2 | 0.0863 ± 0.0035 | 1010 ± 10 | 1.4687 ± 0.0021 | 44.9 ± 1.2 | 115.7 ± 12
323.15 K, x1 = 0.25 | 0.0781 ± 0.0031 | 995 ± 1 | 1.4716 ± 0.0021 | 44.1 ± 1.2 | 157 ± 16
333.15 K, x1 = 0.167 | 0.114 ± 0.0045 | 1014 ± 1 | 1.4668 ± 0.0021 | 45 ± 1 | 78.4 ± 7.9
333.15 K, x1 = 0.2 | 0.131 ± 0.0052 | 1004 ± 1 | 1.4658 ± 0.0021 | 44.1 ± 1.2 | 64.7 ± 6.5
333.15 K, x1 = 0.25 | 0.117 ± 0.0047 | 988 ± 1 | 1.4685 ± 0.0021 | 43.4 ± 1.2 | 90.7 ± 9.2
343.15 K, x1 = 0.167 | 0.141 ± 0.0056 | 1007 ± 1 | 1.4638 ± 0.0021 | 44.2 ± 1.2 | 47.6 ± 4.8
343.15 K, x1 = 0.2 | 0.182 ± 0.0073 | 997 ± 1 | 1.4626 ± 0.0021 | 43.5 ± 1.2 | 41.9 ± 4.2
343.15 K, x1 = 0.25 | 0.151 ± 0.006 | 982 ± 1 | 1.4652 ± 0.0021 | 42.7 ± 1.2 | 56.7 ± 5.7
353.15 K, x1 = 0.167 | 0.222 ± 0.0089 | 1000 ± 1 | 1.4607 ± 0.0021 | 43.5 ± 1.2 | 32 ± 3.2
353.15 K, x1 = 0.2 | 0.264 ± 0.011 | 991 ± 1 | 1.4603 ± 0.0021 | 42.9 ± 1.2 | 25 ± 2.5
353.15 K, x1 = 0.25 | 0.24 ± 0.0096 | 976 ± 1 | 1.462 ± 0.0021 | 41.9 ± 1.2 | 36.7 ± 3.7
